The text below walks through data of patent US12097235B2, “Anti-acne pharmaceutical compositions” (priority 2018, dated 2024).

In assay [1] the test system is COX-2 protein levels in HT-29 cells. The following applies: at 3.6 μg/ml; cited from earlier work.
The test system of assay [2] is Cutibacterium acnes (ATCC 6919). As to the kind of experiment: Antibacterial assay (MIC, broth microdilution, Presto Blue). In kind it is cell-based. The note with it: ATCC6919, C. acnes ATCC 6919, 72 hours, anaerobic, read-out: minimum inhibitory concentration (MIC). How it is done:
The ethanolic extract of Plectranthus […] tested against Cutibacterium acnes (ATCC 6919). The C. acnes bacteria was cultured from a Kwik-Stick on mouse heart and brain agar and then incubated at 37° C. for 72 hours under anaerobic conditions before the assay was done. The 72 hour old bacterial culture was dissolved in brain heart infusion broth and the suspension was adjusted to a 0.5 McFarland standard turbidity. This led to 10^5-10^6 colony forming units (CFU)/ml. In a sterile 96-well plate, 100 μl of the samples from the stock solution that consisted of the plant extracts (2 mg/ml dissolved in 10% dimethyl sulphoxide (DMSO)) and tetracycline the positive control (0.2 mg/ml) was diluted with broth. Twofold serial dilutions were done in broth over a range to give the concentrations 500-3.9 μg/ml for the plant extract and 50-0.3 μg/ml for tetracycline. To all the wells of the 96-well plate, 100 μl of bacterial suspension was added. The solvent control wells contained 2.5% DMSO with bacterial suspension and no plant samples and the negative control, bacterial suspension with no plant samples. The plates were incubated at 37° C. for 72 hours under anaerobic conditions.

The nature of assay [3]: DPPH radical scavenging assay. Type of assay: biochemical. How it is done: The antioxidant activities of Plectranthus […] ethanolic extract was investigated using 1,1-Diphenyl-2-picrylhydrazyl (DPPH) free radical scavenging assay as described by Mavundza (Mavundza, 2010). To the top wells of a 96-well ELISA plate 200 μl of distilled water was added and to the remaining wells 110 μl of distilled water as a medium. Twenty microliters of plant extract and the controls was added to the first top wells that followed a double dilution. To each of the wells 90 μl of 90 μM DPPH ethanolic solution was added and left to incubate covered with aluminium foil for 30 minutes at room temperature. The final concentrations for the Plectranthus […] ethanolic extracts ranged from 3.9 to 500 μg/ml (Mavundza, 2010). […] The radical scavenging capacities of the extracts were determined by using a BIO-TEK Power Wave Multiwell plate reader ([…], South Africa) at 515 nm using KC Junior software (Highland Park, Winooski, Vermont, USA) to measure the disappearance of DPPH at 515 nm. The radical scavenging activity was determined as a percentage DPPH radical-scavenging that was calculated by the following equation, where AC is the absorbance of the control solution that only contains DPPH and AS is the absorbance of the plant sample in DPPH solution: % DPPH radical-scavenging=(AC-AS)/AC×100 […]
On the technique in general: The DPPH test is a chemical assay of radical scavenging.

The nature of assay [4]: NO antioxidant (nitric oxide scavenging) assay. In kind it is biochemical.
For assay [5], the target named is T1, MMP-9 enzyme (Homo sapiens, UniProt P14780).
T1 construct: purchased Enzo Life Sciences BML-AK410
T1 sequence (P14780 107-444 limits assumed): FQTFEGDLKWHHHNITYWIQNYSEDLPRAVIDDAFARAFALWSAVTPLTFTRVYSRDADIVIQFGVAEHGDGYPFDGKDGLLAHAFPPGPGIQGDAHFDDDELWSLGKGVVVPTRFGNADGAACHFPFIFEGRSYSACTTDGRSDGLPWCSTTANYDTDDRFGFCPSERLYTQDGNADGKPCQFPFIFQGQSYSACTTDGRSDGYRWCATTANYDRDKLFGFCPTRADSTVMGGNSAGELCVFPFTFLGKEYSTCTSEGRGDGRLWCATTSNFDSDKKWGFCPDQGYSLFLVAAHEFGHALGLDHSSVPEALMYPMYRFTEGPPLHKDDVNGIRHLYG
The assay can be described thus: Matrix metalloproteinase-9 assay (colorimetric kit). The following applies: at 0.411 μg/ml, single concentration. In kind it is biochemical. How it is done: The MMP-9 Colorimetric Drug Discovery Kit (BML-AK410) from Enzo Life Sciences was used. The experiment was carried out as described in the instruction manual. The MMP chromogenic substrate (Ac-PLG-[2-mercapto-4-methyl-pentanoyl]-LG-OC2H5) and the inhibitor N-Isobutyl-N-(4-methoxyphenylsulfonyl)glycyl hydroxamic acid (NNGH) was thawed to room temperature. The inhibitor was diluted 1/200 in assay buffer (50 mM HEPES, 10 mM CaCl2, 0.05% Brij-35, 1 mM DTNB, pH 7.5) and warmed until 37° C. The substrate was diluted 1/25 in assay buffer to the required volume. The MMP-9 enzyme was diluted in assay buffer to 1/60 and warmed until 37° C. just before the assay. The plant extract was dissolved in dimethyl sulfoxide (DMSO) to a starting concentration of 2 mg/ml.
In the plant extract wells, 50 μl of plant extract and 90 μl of buffer was added to the first well of the 96 well plate (½ volume). To the rest of the plant extract wells, 70 μl of buffer was added and the plant extracts serially diluted. Assay buffer was plated in the rest of the relevant wells as follows: blank 90 μl, control 70 μl, and NNGH 50 μl. […] The plates were continuously read at A412nm by using a BIO-TEK Power Wave Multiwell plate reader (A.D.P., Weltevreden Park, South Africa) at one (1) minute intervals for twenty (20) minutes using KC Junior software (Highland Park, Winooski, Vermont, USA).

Values after ≈ are worked out from the molar mass of the structure shown.

For `O=C(/C=C/c1ccc(O)c(O)c1)O[C@H](Cc1ccc(O)c(O)c1)C(=O)O` [rosmarinic acid], the “effect on COX-2 protein levels” value in assay [1] was “reduced COX-2 protein levels in HT-29 cells to levels comparable to that of the control cells”.

For the molecule `CN(C)[C@@H]1C(O)=C(C(N)=O)C(=O)[C@@]2(O)C(O)=C3C(=O)c4c(O)cccc4[C@@](C)(O)[C@H]3C[C@@H]12` [tetracycline], the MIC in assay [2] amounted to 0.78 µg/mL (≈ 1.76 µM). The same measure, in the same setting: the result for `O=c1cc(-c2ccc(O)c(O)c2)oc2cc(O)cc(O)c12` [Luteolin] reads 62.5 µg/mL (≈ 218 µM).

As for `O=C1O[C@H]([C@@H](O)CO)C(O)=C1O` [vitamin C, L-ascorbic acid], in assay [3], the “DPPH antioxidant activity IC50” value is 9.0 ± 2.0 µg/mL. The “nitric oxide (NO) antioxidant activity IC50” value in assay [4] was 65.8 ± 5.9 µg/mL. Turning to `COc1ccc(S(=O)(=O)N(CC(=O)NO)CC(C)C)cc1` [positive control, N-Isobutyl-N-(4-methoxyphenylsulfonyl)glycyl hydroxamic acid], the MMP-9 inhibition in assay [5] turned out to be 96%.
